Results on 4 molecules are retold here after ChEMBL document CHEMBL1201862, “PubChem BioAssay data set” (2004).

Activity calls are given as the source filed them. Bounds are passed on as bounds.

For one assay, the target named is T1, Caspase-6 (Homo sapiens, UniProt P55212).
T1 sequence (P55212 whole entry): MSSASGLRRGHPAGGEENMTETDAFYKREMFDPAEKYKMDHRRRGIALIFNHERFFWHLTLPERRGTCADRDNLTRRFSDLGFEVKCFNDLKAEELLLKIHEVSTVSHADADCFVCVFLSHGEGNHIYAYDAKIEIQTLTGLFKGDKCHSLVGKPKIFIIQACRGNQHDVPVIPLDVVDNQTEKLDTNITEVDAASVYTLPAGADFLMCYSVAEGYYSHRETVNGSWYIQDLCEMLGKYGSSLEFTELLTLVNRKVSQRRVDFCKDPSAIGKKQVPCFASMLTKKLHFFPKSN
The experiment in a line: inhibition of CASP6 peptide cleavage – biochemical, VEID-R110 fluorescence, cherry-pick, dose response (AID 720632).

The target of assay [1] is T2, Ubiquitin-conjugating enzyme E2 N (Homo sapiens, UniProt P61088).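 Note: Dose-response confirmation in a TR-FRET assay detecting UBC13-driven polyubiquitin chain formation, inhibition measured.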
T2 sequence (P61088 whole entry): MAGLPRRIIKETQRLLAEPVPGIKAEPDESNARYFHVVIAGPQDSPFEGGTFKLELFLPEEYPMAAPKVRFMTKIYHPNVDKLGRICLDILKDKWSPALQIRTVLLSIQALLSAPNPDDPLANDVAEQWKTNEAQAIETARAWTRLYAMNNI
The class given is functional.

Assay [2] deals with Intestinal-type alkaline phosphatase (Mus musculus, UniProt P24822). The assay can be described thus: PubChem AID 488874. In kind it is functional.
Chain of Intestinal-type alkaline phosphatase (P24822 whole entry): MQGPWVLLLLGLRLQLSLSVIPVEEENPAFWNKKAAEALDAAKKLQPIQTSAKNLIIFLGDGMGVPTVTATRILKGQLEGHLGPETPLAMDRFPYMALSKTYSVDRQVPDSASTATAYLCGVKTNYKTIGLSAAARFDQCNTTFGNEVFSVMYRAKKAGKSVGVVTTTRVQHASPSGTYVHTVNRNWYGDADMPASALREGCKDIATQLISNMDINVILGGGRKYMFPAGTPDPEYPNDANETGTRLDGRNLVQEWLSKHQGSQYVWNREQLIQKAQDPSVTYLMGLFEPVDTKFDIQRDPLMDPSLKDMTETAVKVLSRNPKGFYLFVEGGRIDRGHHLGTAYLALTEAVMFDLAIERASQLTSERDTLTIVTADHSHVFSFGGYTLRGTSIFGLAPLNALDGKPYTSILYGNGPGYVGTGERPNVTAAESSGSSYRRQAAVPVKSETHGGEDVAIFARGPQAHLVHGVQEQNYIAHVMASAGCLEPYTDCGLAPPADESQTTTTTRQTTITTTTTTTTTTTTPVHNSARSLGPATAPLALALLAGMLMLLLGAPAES
The nature of assay [3]: loss of viability in HepG2 cells – cell-based, CellTiter-Glo, cherry-picked, cytotoxicity control for Shn3 inhibitor project, dose response (AID 624134). In kind it is functional. In general terms: Cellular ATP, detected with luciferase, serves as a proxy for viable cell number.
A further assay has as its system INS1. The assay can be described thus: INS-1E survival protection against cytokine death – cell-based, luminescence, retest, dose response (AID 449756).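 Note: cell death triggered by IL-1 beta plus TNF-alpha plus IFN-gamma mixture; protective hits raise ATP signal compared with cytokine alone wells.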 As to conditions: Rattus norvegicus. The class given is functional.
Assay [4] concerns BJ. The experiment in a line: BJ-TERT fibroblast viability loss – cell-based, RAS-independent, luminescence, dose response (AID 1933). The class given is functional. As to conditions: Homo sapiens.
Assay [5] in a line: HEK-293T viability loss after treatment – luminescence, T-cell screen hits, cytotoxicity control for TCR NF-kB inhibitor project, dose response (AID 489026).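 Note: cells exposed to compound about 14 hours before the viability readout.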 In kind it is functional, cell-based.
In a further assay the target is Integrin alpha-4 (Homo sapiens, UniProt P13612). The experiment in a line: allosteric modulators of alpha4 integrin VLA-4 – cell-based, LIBS antibody binding, flow cytometry, SAR follow-up (AID 488791). In kind it is functional. For orientation: Flow cytometry measures light scatter and fluorescence of single cells or particles in a stream.
The subject of assay [6] is BJ. The assay can be described thus: growth inhibition of engineered Ras-driven BJ cells – cell-based, alamar blue fluorescence, cherrypicked samples, dose response (AID 2631).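 Note: confirmatory dose-response assay in RAS-dependent BJ fibroblasts engineered with TERT, LT and ST, with cytotoxicity read by fluorescence.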 The class given is functional. As to conditions: Homo sapiens.
In a further assay the target is ORF 73 (Human herpesvirus 8, UniProt O40947). The experiment in a line: KSHV LANA DNA-binding disruption – biochemical, fluorescence polarization, cherry-picked samples, dose response (AID 504725).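 Note: fluorescence polarization of a labeled DNA duplex reporting LANA DNA binding; potency is for inhibitors that block LANA binding to the DNA.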 The arrangement: species or system Human gammaherpesvirus 8. In general terms: In fluorescence polarisation assays a small probe gives low polarisation when free and higher when bound to something large.
Chain of ORF 73 (O40947 whole entry): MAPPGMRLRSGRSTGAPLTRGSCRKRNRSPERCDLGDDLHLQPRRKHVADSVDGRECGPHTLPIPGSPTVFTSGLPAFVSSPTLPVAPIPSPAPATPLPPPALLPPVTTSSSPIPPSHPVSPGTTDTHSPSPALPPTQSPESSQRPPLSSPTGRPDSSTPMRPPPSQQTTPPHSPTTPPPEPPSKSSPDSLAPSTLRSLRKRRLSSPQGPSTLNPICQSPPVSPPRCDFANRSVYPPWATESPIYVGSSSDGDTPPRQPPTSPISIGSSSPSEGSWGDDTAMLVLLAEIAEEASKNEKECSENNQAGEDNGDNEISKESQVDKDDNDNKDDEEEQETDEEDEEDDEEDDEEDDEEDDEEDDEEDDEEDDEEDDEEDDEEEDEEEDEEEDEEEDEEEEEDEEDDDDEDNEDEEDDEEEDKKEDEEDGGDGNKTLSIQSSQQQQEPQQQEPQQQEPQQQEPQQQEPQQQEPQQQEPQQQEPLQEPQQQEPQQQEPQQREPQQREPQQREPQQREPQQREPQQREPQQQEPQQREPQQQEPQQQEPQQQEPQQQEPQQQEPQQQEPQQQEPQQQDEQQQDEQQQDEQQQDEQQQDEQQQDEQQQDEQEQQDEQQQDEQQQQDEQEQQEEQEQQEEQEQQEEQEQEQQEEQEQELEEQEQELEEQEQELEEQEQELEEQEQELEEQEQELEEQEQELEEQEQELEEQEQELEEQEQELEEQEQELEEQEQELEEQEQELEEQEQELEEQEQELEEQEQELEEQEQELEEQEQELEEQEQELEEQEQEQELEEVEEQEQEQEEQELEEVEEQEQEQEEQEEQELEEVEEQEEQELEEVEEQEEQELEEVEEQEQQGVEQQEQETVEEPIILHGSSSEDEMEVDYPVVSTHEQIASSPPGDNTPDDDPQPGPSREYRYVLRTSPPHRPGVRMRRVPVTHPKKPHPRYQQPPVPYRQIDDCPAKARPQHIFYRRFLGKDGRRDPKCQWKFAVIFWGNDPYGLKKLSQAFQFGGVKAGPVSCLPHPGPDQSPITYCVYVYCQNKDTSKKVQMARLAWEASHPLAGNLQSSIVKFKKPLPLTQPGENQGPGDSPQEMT

Assay [7] deals with Insulin-like growth factor 1 receptor (Homo sapiens, UniProt P08069). The experiment in a line: Navigating the Kinome. Panel member name: IGF1R. In kind it is functional.
In assay [8] the target is Protein kinase C delta type (Homo sapiens, UniProt Q05655). The class given is functional.
Chain of Protein kinase C delta type (Q05655 whole entry): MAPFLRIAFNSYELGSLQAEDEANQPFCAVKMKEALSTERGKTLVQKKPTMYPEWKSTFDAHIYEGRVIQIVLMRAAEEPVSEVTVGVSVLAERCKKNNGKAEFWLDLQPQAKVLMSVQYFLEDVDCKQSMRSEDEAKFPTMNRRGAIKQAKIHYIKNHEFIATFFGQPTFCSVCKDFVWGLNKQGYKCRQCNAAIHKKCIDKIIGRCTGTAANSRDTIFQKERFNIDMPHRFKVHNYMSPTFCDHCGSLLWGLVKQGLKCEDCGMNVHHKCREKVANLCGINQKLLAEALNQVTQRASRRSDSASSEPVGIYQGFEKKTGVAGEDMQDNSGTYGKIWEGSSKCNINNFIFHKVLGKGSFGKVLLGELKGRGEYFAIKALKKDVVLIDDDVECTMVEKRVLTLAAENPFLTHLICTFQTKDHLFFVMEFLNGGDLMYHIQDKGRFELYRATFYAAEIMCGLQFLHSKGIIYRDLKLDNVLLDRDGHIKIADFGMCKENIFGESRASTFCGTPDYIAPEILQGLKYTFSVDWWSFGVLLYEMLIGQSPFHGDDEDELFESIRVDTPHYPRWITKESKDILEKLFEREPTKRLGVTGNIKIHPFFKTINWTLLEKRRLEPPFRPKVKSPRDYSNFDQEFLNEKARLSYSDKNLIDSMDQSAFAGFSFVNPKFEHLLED
In assay [9] the target is Lymphokine-activated killer T-cell-originated protein kinase (Homo sapiens, UniProt Q96KB5). In kind it is functional.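 Note: value comes from a kinase panel screen in which TOPK was one of the panel members.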
Assay [10] has as its target Calcium/calmodulin-dependent protein kinase type II subunit delta (Homo sapiens, UniProt Q13557). The class given is functional.
Assay [11] concerns the target MAP kinase-interacting serine/threonine-protein kinase 2 (Homo sapiens, UniProt Q9HBH9). The class given is functional.
Assay [12] deals with Homeodomain-interacting protein kinase 2 (Homo sapiens, UniProt Q9H2X6). In kind it is functional.
Chain of Homeodomain-interacting protein kinase 2 (Q9H2X6 whole entry): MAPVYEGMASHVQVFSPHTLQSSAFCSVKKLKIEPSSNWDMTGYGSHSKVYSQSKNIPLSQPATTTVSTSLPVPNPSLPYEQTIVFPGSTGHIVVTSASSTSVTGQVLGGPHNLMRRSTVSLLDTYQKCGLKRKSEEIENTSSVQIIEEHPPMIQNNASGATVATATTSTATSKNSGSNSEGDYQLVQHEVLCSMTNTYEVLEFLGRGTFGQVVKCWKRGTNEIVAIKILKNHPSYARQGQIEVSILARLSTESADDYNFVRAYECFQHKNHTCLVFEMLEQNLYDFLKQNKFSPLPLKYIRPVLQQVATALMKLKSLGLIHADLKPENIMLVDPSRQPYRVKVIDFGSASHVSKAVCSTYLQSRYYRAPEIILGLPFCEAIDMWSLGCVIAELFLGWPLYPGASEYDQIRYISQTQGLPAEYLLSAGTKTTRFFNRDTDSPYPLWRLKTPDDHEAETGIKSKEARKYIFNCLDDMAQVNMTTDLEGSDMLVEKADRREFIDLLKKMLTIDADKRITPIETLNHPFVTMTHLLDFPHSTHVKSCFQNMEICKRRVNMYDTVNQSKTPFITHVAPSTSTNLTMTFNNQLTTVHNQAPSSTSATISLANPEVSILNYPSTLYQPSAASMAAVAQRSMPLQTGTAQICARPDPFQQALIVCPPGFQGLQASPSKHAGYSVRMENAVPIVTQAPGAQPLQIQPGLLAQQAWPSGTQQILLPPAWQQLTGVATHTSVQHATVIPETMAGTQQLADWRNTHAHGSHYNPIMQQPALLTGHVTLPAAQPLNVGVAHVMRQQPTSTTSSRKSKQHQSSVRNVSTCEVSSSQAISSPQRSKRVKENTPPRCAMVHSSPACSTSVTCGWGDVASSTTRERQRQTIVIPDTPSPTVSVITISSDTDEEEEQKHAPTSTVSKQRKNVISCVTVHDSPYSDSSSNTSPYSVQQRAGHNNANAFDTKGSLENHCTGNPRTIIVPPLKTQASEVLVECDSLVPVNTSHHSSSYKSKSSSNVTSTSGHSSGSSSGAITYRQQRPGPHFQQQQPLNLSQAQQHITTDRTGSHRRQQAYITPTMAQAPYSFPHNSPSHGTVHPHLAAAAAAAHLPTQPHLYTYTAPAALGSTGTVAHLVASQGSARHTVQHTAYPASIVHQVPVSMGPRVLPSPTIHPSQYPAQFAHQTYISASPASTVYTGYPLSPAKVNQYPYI
Another assay addresses Ephrin type-A receptor 2 (Homo sapiens, UniProt P29317). The class given is functional.
Assay [13] addresses Tyrosine-protein kinase JAK3 (Homo sapiens, UniProt P52333). In kind it is functional.
In the next assay the target is Activated CDC42 kinase 1 (Homo sapiens, UniProt Q07912). The assay can be described thus: Navigating the Kinome. Panel member name: ACK1. In kind it is functional.
The target in assay [14] is Serine/threonine-protein kinase pim-3 (Homo sapiens, UniProt Q86V86). The class given is functional.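 Note: value obtained as one member of a broad kinase panel profiling effort.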
Assay [15] concerns the target Mast/stem cell growth factor receptor Kit (Homo sapiens, UniProt P10721). The class given is functional.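 Note: KIT entry within a kinase panel assay.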
In assay [16] the target is MAP kinase-activated protein kinase 2 (Homo sapiens, UniProt P49137). In kind it is functional.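 Note: measured as one member of a kinome-wide kinase panel.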
Chain of MAP kinase-activated protein kinase 2 (P49137 whole entry): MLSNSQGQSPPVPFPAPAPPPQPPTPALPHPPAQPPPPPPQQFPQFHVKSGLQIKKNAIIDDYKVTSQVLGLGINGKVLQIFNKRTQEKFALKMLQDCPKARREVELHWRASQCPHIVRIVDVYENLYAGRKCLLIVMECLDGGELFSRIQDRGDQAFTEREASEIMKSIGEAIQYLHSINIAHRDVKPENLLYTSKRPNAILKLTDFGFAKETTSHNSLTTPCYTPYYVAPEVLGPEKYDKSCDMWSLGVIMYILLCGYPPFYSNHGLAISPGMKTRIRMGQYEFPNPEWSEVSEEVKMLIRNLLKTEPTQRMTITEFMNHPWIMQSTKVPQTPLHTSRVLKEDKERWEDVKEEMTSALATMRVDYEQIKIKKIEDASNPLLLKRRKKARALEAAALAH
Assay [17] concerns the target Maternal embryonic leucine zipper kinase (Homo sapiens, UniProt Q14680). In kind it is functional.
The target in assay [18] is Protein kinase C zeta type (Homo sapiens, UniProt Q05513). In kind it is functional.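 Note: measured as one member of a broad kinase profiling panel.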
For assay [19], the target named is Serine/threonine-protein kinase pim-2 (Homo sapiens, UniProt Q9P1W9). In kind it is functional.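 Note: value comes from a broad kinase panel profiling study in which PIM2 was one of the panel members.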
Chain of Serine/threonine-protein kinase pim-2 (Q9P1W9 whole entry): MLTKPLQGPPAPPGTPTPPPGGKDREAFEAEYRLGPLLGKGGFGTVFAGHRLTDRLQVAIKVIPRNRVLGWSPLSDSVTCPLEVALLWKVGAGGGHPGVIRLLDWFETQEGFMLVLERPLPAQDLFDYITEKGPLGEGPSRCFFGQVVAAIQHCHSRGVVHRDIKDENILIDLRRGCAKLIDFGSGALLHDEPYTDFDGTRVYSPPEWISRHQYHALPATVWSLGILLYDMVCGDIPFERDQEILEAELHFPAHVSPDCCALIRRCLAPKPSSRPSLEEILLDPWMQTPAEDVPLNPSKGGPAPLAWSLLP
Assay [20] concerns the target Mitogen-activated protein kinase kinase kinase kinase 4 (Homo sapiens, UniProt O95819). In kind it is functional.
The target in assay [21] is Tyrosine-protein kinase Lyn (Homo sapiens, UniProt P07948). The class given is functional.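 Note: lyn as one member of a kinase panel.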
For assay [22], the target named is Hepatocyte growth factor receptor (Homo sapiens, UniProt P08581). The class given is functional.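 Note: kinase panel profiling across the kinome, with MET as the panel member.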
For assay [23], the target named is Mitogen-activated protein kinase 12 (Homo sapiens, UniProt P53778). In kind it is functional.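 Note: measured as one member of a kinome-wide kinase profiling panel.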
Chain of Mitogen-activated protein kinase 12 (P53778 whole entry): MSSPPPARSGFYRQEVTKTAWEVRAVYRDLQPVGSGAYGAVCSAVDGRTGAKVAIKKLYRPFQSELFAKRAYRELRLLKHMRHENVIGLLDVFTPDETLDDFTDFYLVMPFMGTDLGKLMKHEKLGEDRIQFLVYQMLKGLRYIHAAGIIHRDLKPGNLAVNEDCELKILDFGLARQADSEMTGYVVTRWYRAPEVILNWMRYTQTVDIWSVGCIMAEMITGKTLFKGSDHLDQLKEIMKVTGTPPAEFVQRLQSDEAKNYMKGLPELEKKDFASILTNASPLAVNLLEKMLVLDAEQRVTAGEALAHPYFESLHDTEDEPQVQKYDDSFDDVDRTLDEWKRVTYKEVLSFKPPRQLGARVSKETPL
For assay [24], the target named is Protein-tyrosine kinase 2-beta (Homo sapiens, UniProt Q14289). The class given is functional.
The target of assay [25] is Eukaryotic elongation factor 2 kinase (Homo sapiens, UniProt O00418). The class given is functional.
Assay [26] addresses Cyclin-dependent kinase 8 (Homo sapiens, UniProt P49336). The assay can be described thus: Navigating the Kinome. Panel member name: CDK8. The class given is functional.
In assay [27] the target is Protein kinase C theta type (Homo sapiens, UniProt Q04759). The assay can be described thus: Navigating the Kinome. Panel member name: PRKCQ. In kind it is functional.
For assay [28], the target named is Cyclin-dependent kinase 9 (Homo sapiens, UniProt P50750). In kind it is functional.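 Note: value from the CDK9 entry of a kinome-spanning kinase panel.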
The target of assay [29] is Calcium/calmodulin-dependent protein kinase type II subunit gamma (Homo sapiens, UniProt Q13555). The class given is functional.
Assay [30] addresses Cyclin-dependent kinase 1 (Homo sapiens, UniProt P06493). In kind it is functional.

Consider `O=C(NN1C(=O)CSC1=S)C(=O)NN1C(=O)CSC1=S`, for which the AC50 (usually the midpoint of the concentration-response curve, whichever way the signal moves) at Caspase-6 is 0.276 µM (active). Besides, the IC50 (in general, the midpoint of a concentration-inhibition curve) in assay [1] was > 20 µM (inactive); in assay [2], 3.84 µM (active).

Take `COC(=O)C1CN(C#N)N(c2ccc(Cl)cc2)C12c1ccccc1-c1ccccc12` (stereo unspecified): the AC50 in assay [3] is 8.85 µM (active); in the assay on INS1, 2.5 µM (active). For the same molecule, the EC50 (commonly the concentration giving half of the maximal effect) in the assay with BJ [4] is 1.93 µM (active); at Integrin alpha-4, 18.9 µM (active); in the assay on BJ [6] it was 0.563 µM (inconclusive). The IC50 in assay [5] is 56.6 µM (inactive).

`O=C1NC(=S)S/C1=C\C=C\c1ccc([N+](=O)[O-])o1`: the AC50 on ORF 73 is 71.4 µM (active).

In the case of `Nc1noc2cccc(-c3cccc(O)c3)c12`, the Ki (commonly the equilibrium dissociation constant of an inhibitor or competing ligand from its target) in assay [7] was > 2 µM (inactive); in assay [8] it was > 7.94 µM (inactive); in [9], > 10 µM (inactive); in assay [10], 2.51 µM (active); in [11], 1 µM (active); in assay [12], > 3.16 µM (inactive). The Ki at Ephrin type-A receptor 2 is > 3.16 µM (inactive); in assay [13], > 1.58 µM (inactive); at Activated CDC42 kinase 1, 25.1 µM (active); in assay [14] it was > 7.94 µM (inactive); in [15], > 1.26 µM (inactive); in assay [16], > 7.94 µM (inactive). The Ki was > 1.58 µM (inactive) in [17]; > 7.94 µM (inactive) in assay [18]; > 1.58 µM (inactive) in assay [19]; 20 µM (active) in [20]; > 1.58 µM (inactive) in assay [21]; > 12.6 µM (inactive) in assay [22]. The Ki was > 6.31 µM (inactive) in assay [23]; > 1.58 µM (inactive) in assay [24]; > 3.98 µM (inactive) in assay [25]; 0.501 µM (active) in assay [26]; 20 µM (active) in assay [27]; 15.8 µM (active) in assay [28]. For the same molecule, the Ki is 6.31 µM (active) in assay [29] and > 7.94 µM (inactive) in [30].
